Experiments:
[1] = test system: p53; experiment: p53 transcription activity: GFP reporter in HCT116 cells transfected with RGC-mazE-IRES-GFP plasmid; type: cell-based, human
Procedure: In order to test the ability of p53 to bind to its responsive element and stimulate transcription, HCT116 cells were transfected with RGC-mazE-IRES-GFP plasmid. Since p53 is degraded in un-activated cells, the present inventors used Quercetin, a ubiquitous bioactive plant flavonoid that is able to induce p53 phosphorylation, stabilization and total p53 protein accumulation. Another widely used p53 inducer is the antimetabolite agent 5-FU. P53 transcription activity was evaluated by measuring the expression of the downstream reporter gene, GFP.

[2] = test system: HCT116 cells
[3] = test system: HCT116 cells; experiment: Cell toxicity in transfected HCT116 cells
[4] = target: mCherry-MazF (E. coli MazF ribonuclease fused to the C terminus of the monomeric red fluorescence protein mCherry) (E. coli) (UniProt P0AE70); experiment: cell-based or functional assay
Chain of mCherry-MazF (E. coli MazF ribonuclease fused to the C terminus of the monomeric red fluorescence protein mCherry) (E. coli) (P0AE70 whole entry, the tested form may be a part): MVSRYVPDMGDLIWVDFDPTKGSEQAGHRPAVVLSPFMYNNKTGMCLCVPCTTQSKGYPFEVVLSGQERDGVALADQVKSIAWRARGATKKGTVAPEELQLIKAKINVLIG

With `O=c1[nH]cc(F)c(=O)[nH]1` [5-FU] as the molecule, how does the GFP expression levels ([1]; 10 μM, compared with Quercetin) read?
Its GFP expression levels is “significantly higher expression levels of GFP”.

What about the cell toxicity [2] of the same molecule?
Its cell toxicity is “no toxicity”.

What does the source list for `O=c1c(O)c(-c2ccc(O)c(O)c2)oc2cc(O)cc(O)c12` [Quercetin]?
increase of GFP expression ([1]; 50 μM): about 10 folds; cell death (cell toxicity) [3]: 60%

How did the yield of mCherry-MazF adenovirus in HEK293 packaging cells that constitutively express MazE, against parental HEK293 cells (orders of magnitude) [4] turn out when “E. coli antitoxin MazE (from UniProt P0AE72 1-82)” was run?
The yield of mCherry-MazF adenovirus in HEK293 packaging cells that constitutively express MazE, against parental HEK293 cells (orders of magnitude) was 2.
